The values that follow come from patent US10618901B2 (GlaxoSmithKline Intellectual Property Development Limited, priority 2014, dated 2020).

The target in this experiment is T1, LRRK2 Ser935 phosphorylation in SH-SY5Y cells over-expressing recombinant full length LRRK2 (Homo sapiens, UniProt Q5S007).
T1 construct: A BacMam virus expressing full length recombinant LRRK2 was purchased from Invitrogen; host or cells: SH-SY5Y (BacMam transduction)
The experiment is described as follows: Recombinant cellular LRRK2 AlphaScreen assay. The class given is cell-based. The note with it: read-out: pIC50 in the recombinant cellular LRRK2 alphaScreen assay (converted). The text has this: Recombinant Cellular LRRK2 AlphaScreen Assay
To determine the activity of compounds against LRRK2 kinase activity in cells, the observed LRRK2 kinase-dependent modulation of LRRK2 Ser 935 phosphorylation (Dzamko et al., 2010, Biochem. J. 430: 405-413) was utilized to develop a quantitative 384 well plate-based immunoassay of LRRK2 Ser935 phosphorylation in the human neuroblastoma cell line SH-SY5Y, engineered to over-express recombinant full length LRRK2 protein.
A BacMam virus expressing full length recombinant LRRK2 was purchased from Invitrogen and amplified by inoculation of SF-9 cells at MOI 0.3 for 4-5 days in Sf-900 III SFM medium supplemented with 3% fetal bovine serum. Infected cell cultures were then centrifuged at 2000 g for 20 minutes, viral supernatant titer determined by anti-gp64 plaque assay and stored at 4° C.
Affinity-purified anti-phospho LRRK2 Ser935 sheep polyclonal antibody (Dzamko et al., 2010, Biochem. J. 430: 405-413) was biotinylated by standard methods (PerkinElmer). Anti-LRRK2 rabbit polyclonal antibody was purchased from Novus Biologicals. AlphaScreen Protein A IgG Kit (including acceptor and donor beads) was purchased from Perkin Elmer.
SH-SY5Y cells were grown in DMEM/F12 medium with 10% dialysed fetal bovine serum and harvested by treatment with 0.5% trypsin-EDTA for 5 minutes at 37° C. followed by centrifugation at 1000 rpm for 4 minutes. The cell pellet was resuspended in Opti-MEM reduced serum media (Invitrogen) at 200,000 cells/ml and mixed with the BacMam LRRK2 virus at M01=50. 50 μl cell solutions were then dispensed to each well of a 384-well plate and incubated at 37° C., 5% CO2 for 24 hours.
Serial dilutions of test compounds were prepared in Opti-MEM reduced serum media (Invitrogen) and 5.6 ul transferred from compound plate to cell assay plate to achieve a top final assay concentration of 10 uM. DMSO was used in certain wells as controls. Cells were incubated at 37° C., 5% CO2 for 60 minutes. The medium was then removed and cells lysed by addition of 20 ul cell lysis buffer (Cell Signaling Technology) and incubation at 4° C. for 20 minutes. 10 ul of antibody/acceptor bead mix [(1/1000 biotinylated-pS935 LRRK2 antibody, 1/1000 total-LRRK2 antibody, 1/100 Acceptor beads in AlphaScreen detection buffer (25 mM Hepes (pH 7.4), 0.5% Triton X-100, 1 mg/ml Dextran 500 and 0.1% BSA)] was then added to each well and plates incubated for 2 hours at ambient temperature in the dark. 10 μl of donor beads solution (1/33.3 donor beads in AlphaScreen detection buffer) was then added to each well. Following incubation for a further 2 hours at ambient temperature in the dark, plates were read on an EnVision™ plate reader at emission 520-620 nm with excitation 680 nm. Dose response curve data was based on sigmoidal dose-response model.
(Alpha assays give light when donor and acceptor beads are brought close together.)

The structures appear in SMILES notation.

T1 sequence (Q5S007 whole entry): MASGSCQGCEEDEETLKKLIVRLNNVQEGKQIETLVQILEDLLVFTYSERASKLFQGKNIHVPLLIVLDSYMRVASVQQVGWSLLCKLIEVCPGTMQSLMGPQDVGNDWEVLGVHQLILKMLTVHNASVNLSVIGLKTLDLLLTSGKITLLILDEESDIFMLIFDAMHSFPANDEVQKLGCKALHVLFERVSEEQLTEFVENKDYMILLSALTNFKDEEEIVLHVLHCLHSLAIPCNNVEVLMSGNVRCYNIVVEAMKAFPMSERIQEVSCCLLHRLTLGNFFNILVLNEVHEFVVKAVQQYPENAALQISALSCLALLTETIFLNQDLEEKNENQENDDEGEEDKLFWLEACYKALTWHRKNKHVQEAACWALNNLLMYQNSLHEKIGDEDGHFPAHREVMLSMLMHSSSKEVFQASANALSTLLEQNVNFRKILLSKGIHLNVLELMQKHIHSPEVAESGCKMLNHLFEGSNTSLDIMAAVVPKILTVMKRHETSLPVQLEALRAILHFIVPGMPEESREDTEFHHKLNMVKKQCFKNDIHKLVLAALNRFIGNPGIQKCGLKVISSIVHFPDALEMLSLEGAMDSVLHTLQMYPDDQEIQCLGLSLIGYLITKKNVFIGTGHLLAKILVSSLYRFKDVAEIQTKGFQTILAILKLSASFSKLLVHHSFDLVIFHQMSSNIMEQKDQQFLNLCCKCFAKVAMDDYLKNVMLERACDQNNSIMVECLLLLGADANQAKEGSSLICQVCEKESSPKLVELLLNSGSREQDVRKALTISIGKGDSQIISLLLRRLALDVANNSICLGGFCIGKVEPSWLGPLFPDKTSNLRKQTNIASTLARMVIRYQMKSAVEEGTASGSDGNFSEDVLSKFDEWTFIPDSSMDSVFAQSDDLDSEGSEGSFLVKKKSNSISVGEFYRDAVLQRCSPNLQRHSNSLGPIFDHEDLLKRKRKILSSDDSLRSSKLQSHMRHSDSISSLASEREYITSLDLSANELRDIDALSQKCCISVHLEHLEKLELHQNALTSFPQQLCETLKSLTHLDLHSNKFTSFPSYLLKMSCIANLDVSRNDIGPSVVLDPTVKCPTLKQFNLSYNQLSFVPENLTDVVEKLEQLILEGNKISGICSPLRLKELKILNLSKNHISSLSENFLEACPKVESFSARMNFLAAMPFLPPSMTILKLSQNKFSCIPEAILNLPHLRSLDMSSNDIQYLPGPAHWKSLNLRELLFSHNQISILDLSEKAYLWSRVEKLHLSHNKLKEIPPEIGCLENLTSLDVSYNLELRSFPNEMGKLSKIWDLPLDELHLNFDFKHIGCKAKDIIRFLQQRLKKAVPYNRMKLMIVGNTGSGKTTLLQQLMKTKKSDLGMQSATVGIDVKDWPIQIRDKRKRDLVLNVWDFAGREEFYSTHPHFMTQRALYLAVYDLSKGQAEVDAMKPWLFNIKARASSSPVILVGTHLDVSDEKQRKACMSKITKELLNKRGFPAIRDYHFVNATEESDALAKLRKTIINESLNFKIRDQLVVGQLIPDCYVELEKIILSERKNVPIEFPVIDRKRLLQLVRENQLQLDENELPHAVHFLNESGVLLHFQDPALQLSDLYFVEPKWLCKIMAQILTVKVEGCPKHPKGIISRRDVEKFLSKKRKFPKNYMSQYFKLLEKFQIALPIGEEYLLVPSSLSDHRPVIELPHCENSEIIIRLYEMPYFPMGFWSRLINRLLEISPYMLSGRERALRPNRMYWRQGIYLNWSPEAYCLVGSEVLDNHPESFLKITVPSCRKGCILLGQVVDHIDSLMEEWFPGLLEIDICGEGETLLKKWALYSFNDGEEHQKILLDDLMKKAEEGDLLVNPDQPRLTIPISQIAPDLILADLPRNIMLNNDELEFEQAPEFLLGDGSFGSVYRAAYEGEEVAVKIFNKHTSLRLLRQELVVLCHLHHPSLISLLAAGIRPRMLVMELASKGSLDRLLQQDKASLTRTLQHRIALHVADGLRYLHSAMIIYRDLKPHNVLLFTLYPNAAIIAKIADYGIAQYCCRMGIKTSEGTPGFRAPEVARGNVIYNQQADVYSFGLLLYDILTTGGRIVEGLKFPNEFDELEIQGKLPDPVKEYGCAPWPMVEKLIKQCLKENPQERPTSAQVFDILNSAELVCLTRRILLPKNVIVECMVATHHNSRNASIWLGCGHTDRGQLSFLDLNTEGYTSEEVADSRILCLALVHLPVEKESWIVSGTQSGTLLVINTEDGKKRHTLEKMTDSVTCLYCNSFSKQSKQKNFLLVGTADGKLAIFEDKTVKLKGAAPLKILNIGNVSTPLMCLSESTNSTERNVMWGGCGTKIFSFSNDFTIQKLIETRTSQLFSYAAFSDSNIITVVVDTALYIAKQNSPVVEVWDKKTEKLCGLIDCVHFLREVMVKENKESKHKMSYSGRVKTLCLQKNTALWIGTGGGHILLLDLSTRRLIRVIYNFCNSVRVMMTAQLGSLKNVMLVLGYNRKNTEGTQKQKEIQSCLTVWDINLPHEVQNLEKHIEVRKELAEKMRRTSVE

Regarding `CCOc1nc(Nc2cnn(C3CC(N4CCOCC4)CCC3(F)F)c2Cl)nc2[nH]ccc12` (racemic) [Example E145, (±)-trans-N-(5-chloro-1-(2,2-difluoro-5-morpholinocyclohexyl)-1H-pyrazol-4-yl)-4-ethoxy-7H-pyrrolo[2,3-d]pyrimidin-2-amine], the IC50 is ≤ 0.1 µM. The figure for `CCOc1nc(Nc2cnn(C(C)(C)C#N)c2C)nc2[nH]ccc12` [Example E96, 2-(4-((4-ethoxy-7H-pyrrolo[2,3-d]pyrimidin-2-yl)amino)-5-methyl-1H-pyrazol-1-yl)-2-methylpropanenitrile] is ≤ 0.1 µM. The figure for `CCOc1nc(Nc2cnn([C@H]3CCCN(C4COC4)C3)c2C)nc2[nH]ccc12` [Example E136, (S)-4-ethoxy-N-(5-methyl-1-(1-(oxetan-3-yl)piperidin-3-yl)-1H-pyrazol-4-yl)-7H-pyrrolo[2,3-d]pyrimidin-2-amine] is ≤ 0.1 µM; for `CCOc1nc(Nc2cnn(CCN3CCOC[C@H]3C)c2C)nc2[nH]ccc12` [Example E81, (R)-4-ethoxy-N-(5-methyl-1-(2-(3-methylmorpholino)ethyl)-1H-pyrazol-4-yl)-7H-pyrrolo [2,3-d]pyrimidin-2-amine] it is ≤ 0.1 µM.

As for `CCOc1nc(Nc2cn(CCOC)nc2C)nc2[nH]cc(C#N)c12` [Example E48, 4-ethoxy-2-((1-(2-methoxyethyl)-3-methyl-1H-pyrazol-4-yl)-amino)-7H-pyrrolo-[2,3-d]-pyrimidine-5-carbonitrile], the IC50 was ≤ 0.1 µM.

Consider `CCOc1nc(Nc2cnn(CC(C)N3CCOCC3)c2C)nc2[nH]ccc12` (single isomer, unassigned) [Example E92], for which the IC50 was ≤ 0.1 µM.

As for `CCOc1nc(Nc2cnn([C@@H]3CCCN(C4COC4)C3)c2C)nc2[nH]ccc12` [Example E135, (R)-4-ethoxy-N-(5-methyl-1-(1-(oxetan-3-yl)piperidin-3-yl)-1H-pyrazol-4-yl)-7H-pyrrolo [2,3-d]pyrimidin-2-amine], the IC50 was ≤ 0.1 µM.

For the molecule `CCOc1nc(Nc2cnn(C3CCN(C4COC4)CC3(F)F)c2Cl)nc2[nH]ccc12` (single isomer, unassigned) [Example E133, N-(5-chloro-1-(3,3-difluoro-1-(oxetan-3-yl)piperidin-4-yl)-1H-pyrazol-4-yl)-4-ethoxy-7H-pyrrolo[2,3-d]pyrimidin-2-amine], the IC50 is ≤ 0.1 µM. As to `CCOc1nc(Nc2cnn(C3CNCCC3(F)F)c2Cl)nc2[nH]ccc12` (single isomer, unassigned) [Example E125, N-(5-chloro-1-(4,4-difluoropiperidin-3-yl)-1H-pyrazol-4-yl)-4-ethoxy-7H-pyrrolo [2,3-d] pyrimidin-2-amine], the IC50 was ≤ 0.1 µM.

Consider `CCOc1nc(Nc2cnn(C3CN(C)CC3F)c2C)nc2[nH]ccc12` (single isomer, unassigned) [Example E59, 4-ethoxy-N-(1-(4-fluoro-1-methylpyrrolidin-3-yl)-5-methyl-1H-pyrazol-4-yl)-7H-pyrrolo-[2,3-d]pyrimidin-2-amine], for which the IC50 was ≤ 0.1 µM.

In the case of `CCOc1nc(Nc2cnn(CCF)c2C)nc2[nH]ccc12` [Example E26, 4-ethoxy-N-(1-(2-fluoroethyl)-5-methyl-1H-pyrazol-4-yl)-7H-pyrrolo-[2,3-d]-pyrimidin-2-amine], the IC50 is ≤ 0.1 µM.

Take `CCOc1nc(Nc2cnn(C3CCC(O)C3)c2Cl)nc2[nH]ccc12` (racemic) [Example E101, (±)-trans-3-(5-chloro-4-((4-ethoxy-7H-pyrrolo[2,3-d]pyrimidin-2-yl)amino)-1H-pyrazol-1-yl) cyclopentanol]: the IC50 is ≤ 0.1 µM. The figure for `CCOc1nc(Nc2cnn(C3CCCC3O)c2Cl)nc2[nH]ccc12` (racemic) [Example E36, (±)-2-(5-chloro-4-((4-ethoxy-7H-pyrrolo-[2,3-d]-pyrimidin-2-yl)amino)-1H-pyrazol-1-yl)cyclopentanol] is ≤ 0.1 µM; for `CCOc1nc(Nc2cnn(C3CCC(N4CCOCC4)C3)c2C)nc2[nH]ccc12` (single isomer, unassigned) [Example E108, (trans)-4-ethoxy-N-(5-methyl-1-(3-morpholinocyclopentyl)-1H-pyrazol-4-yl)-7H-pyrrolo[2,3-d]pyrimidin-2-amine] it is ≤ 0.1 µM.

`CCOc1nc(Nc2cnn(C3CCCC3O)c2C)nc2[nH]ccc12` (racemic) [Example E39, (±)-2-(4-((4-ethoxy-7H-pyrrolo[2,3-d]pyrimidin-2-yl)amino)-5-methyl-1H-pyrazol-1-yl)cyclopentanol]: the IC50 is ≤ 0.1 µM. Take `CCOc1nc(Nc2cnn(C3CCC(N4CCOCC4)C3)c2Cl)nc2[nH]ccc12` (single isomer, unassigned) [Example E110, (trans)-N-(5-chloro-1-(3-morpholinocyclopentyl)-1H-pyrazol-4-yl)-4-ethoxy-7H-pyrrolo [2,3-d]pyrimidin-2-amine]: the IC50 is ≤ 0.1 µM. Turning to `CCOc1nc(Nc2cnn(C3CCN(C4COC4)CC3F)c2Cl)nc2[nH]ccc12` (single isomer, unassigned) [Example E106, cis-N-(5-chloro-1-(3-fluoro-1-(oxetan-3-yl)piperidin-4-yl)-1H-pyrazol-4-yl)-4-ethoxy-7H-pyrrolo[2,3-d]pyrimidin-2-amine], the IC50 was ≤ 0.1 µM. Turning to `CCOc1nc(Nc2cnn(C3CCN(C)CC3)c2C)nc2[nH]ccc12` [Example E18, 4-ethoxy-N-(5-methyl-1-(1-methylpiperidin-4-yl)-1H-pyrazol-4-yl)-7H-pyrrolo-[2,3-d]-pyrimidin-2-amine], the IC50 is ≤ 0.1 µM.

Take `CCOc1nc(Nc2cnn(C3CN(C4COC4)CCC3(F)F)c2C)nc2[nH]ccc12` (single isomer, unassigned) [Example E119, N-(1-(4,4-difluoro-1-(oxetan-3-yl)piperidin-3-yl)-5-methyl-1H-pyrazol-4-yl)-4-ethoxy-7H-pyrrolo[2,3-d]pyrimidin-2-amine]: the IC50 was ≤ 0.1 µM. The figure for `CCOc1nc(Nc2cnn([C@H]3CCN(CC(F)F)C3)c2C)nc2[nH]ccc12` [Example E87, (S)—N-(1-(1-(2,2-difluoroethyl)pyrrolidin-3-yl)-5-methyl-1H-pyrazol-4-yl)-4-ethoxy-7H-pyrrolo[2,3-d]pyrimidin-2-amine] is ≤ 0.1 µM. The figure for `CCOc1nc(Nc2cnn(C3CCN(C4COC4)CC3(F)F)c2C)nc2[nH]ccc12` (single isomer, unassigned) [Example E131, N-(1-(3,3-difluoro-1-(oxetan-3-yl)piperidin-4-yl)-5-methyl-1H-pyrazol-4-yl)-4-ethoxy-7H-pyrrolo[2,3-d]pyrimidin-2-amine] is ≤ 0.1 µM. In the case of `CCOc1nc(Nc2cnn(C3CCN(C4COC4)CC3F)c2C)nc2[nH]ccc12` (single isomer, unassigned) [Example E102, cis-4-ethoxy-N-(1-(3-fluoro-1-(oxetan-3-yl)piperidin-4-yl)-5-methyl-1H-pyrazol-4-yl)-7H-pyrrolo[2,3-d]pyrimidin-2-amine], the IC50 is ≤ 0.1 µM. In the case of `CCOc1nc(Nc2cnn(C3CCOCC3F)c2C)nc2[nH]ccc12` (single isomer, unassigned) [Example E128, (cis)-4-ethoxy-N-(1-(3-fluorotetrahydro-2H-pyran-4-yl)-5-methyl-1H-pyrazol-4-yl)-7H-pyrrolo[2,3-d]pyrimidin-2-amine] it was ≤ 0.1 µM; in that of `CCOc1nc(Nc2cnn(C3COC3)c2Cl)nc2[nH]ccc12` [Example E35, N-(5-chloro-1-(oxetan-3-yl)-1H-pyrazol-4-yl)-4-ethoxy-7H-pyrrolo-[2,3-d]pyrimidin-2-amine], ≤ 0.1 µM. Regarding `CCOc1nc(Nc2cnn(CCN3CC[C@@H](F)C3)c2C)nc2[nH]ccc12` [Example E63, (R)-4-ethoxy-N-(1-(2-(3-fluoropyrrolidin-1-yl)-ethyl)-5-methyl-1H-pyrazol-4-yl)-7H-pyrrolo[2,3-d]pyrimidin-2-amine], the IC50 was ≤ 0.1 µM.

Consider `CCOc1nc(Nc2cnn(C3CCN(C4COC4)CC3(C)F)c2C)nc2[nH]ccc12` (single isomer, unassigned) [Example E138, (4-ethoxy-7H-pyrrolo[2,3-d]pyrimidin-2-yl)-[1-(3-fluoro-3-methyl-1-oxetan-3-yl-piperidin-4-yl)-5-methyl-1H-pyrazol-4-yl]-amine], for which the IC50 was ≤ 0.1 µM.
